# Source: patent US4863713A, “Method and system for administering therapeutic and diagnostic agents” (priority 1986, dated 1989)
# Experiments:
# [1] = target: avidin (Gallus gallus, UniProt P02701); assay: Binding of biotinylated chelate to avidin
# Description: To illustrate a derivatization reaction used in preparing a epitopic compound, the above bifunctional chelates can be coupled to a biotin moiety, to produce of epitopic biotin chelate capable of specific, high-affinity binding to avidin. In one coupling method, a bifunctional chelate having a free-end amine is reacted with an N-hydroxysuccinamide (NHS) ester of biotin, to link the biotin to the chelate amine through an amide linkage. The chelate amine may be formed from BABE-EDTA, for example, by amination in concentrated aqueous ammonium, and the NHS biotin ester is commercially available. […] Other active agents can be biotinylated or derivatized with carbohydrate or haptenic molecules in a similar manner.
# [2] = Whole body retention of antibody complexes of EDTA-111In or 57Co compounds (Example 4); type: in vivo, Balb/C mice; conditions: WC3A11 complex
# Description: EDTA and BABE-EDTA were complexed with ^111 In and bleomycin, with ^57 Co, as in Example 1. […] BLEDTA-IV-^111 In, a bleomycin-EDTA-In compound containing EDTA linked to bleomycin through a dithiobutane spacer, was prepared as described in co-owned patent application for "Bleomycin Conjugates and Methods". TBEDTA-^111 In was prepared as in Example 1. WC3A11 antibody complexes were formed by incubating the WC3A11 antibody from Example 2 with a selected ^111 In cpm amount of (a) ^111 -In-EDTA, (b) ^111 In-BABE-EDTA, (c) BLEDTA-II-^111 In, (d) BL-^57 Co. (e) BLEDTA-IV-^111 In, or (f) TBEDTA-^111 In.
# Each of the antibody/EDTA-^111 In or ^57 Co complexes (a)-(f) was subjected intravenously to each of three Balb/C mice, in an amount between about 200-800 μg per animal. Twenty-four hours after the injection, the total body radioactivity of ^111 In was measured in a dual-probe scintillation counter. The values were averaged for the three animals. […] By contrast, the antibody complexes of compounds (e) and (f) (both of which contain a thiobutane-BABE-EDTA moiety) were retained to more than 30% after 24 hours, at an initial dose of about 180 μg antibody, and to greater than about 70% of an initial antibody dose of about 800 μg antibody.
# [3] = test system: KHJJ adenocarcinoma tumor; assay: Tumor targeting, third study: antibody, clearing agent, then hapten; 3 h post hapten biodistribution; type: in vivo, Balb/C mice
# Description: (§1) This example examines the targeting of ^111 In in animal tumors, according to the method of the invention. Balb/C mice were prepared with a KHJJ adenocarcinoma tumor implants in the flank. A hybridoma cell line designated CHA255 specific against L-benzyl-EDTA-In was prepared by methods similar to those described in Example II, using as an immunogen, an L-benzyl-EDTA-In (para-nitrophenolbenzyl-EDTA-In) group derivatized in KLH.
# A third study examined the degree of tumor localization achievable by an antibody, antibody clearance, and compound administration regimen carried out in accordance with the invention. The CHA255 antibody was administered to each of three animals and allowed to localize for 24 hours, at which time the antibody was cleared from the bloodstream by administration of a clearing agent consisting of transferring derivatized with L-benzyl-EDTA-In. One hour later, the L-benzyl-EDTA-^111 In compound was administered, and the animals sacrificed after an additional three hours.
# [4] = test system: KHJJ adenocarcinoma tumor; assay: Tumor targeting, first study: antibody complexed with L-benzyl-EDTA-111In, 24 h biodistribution; type: in vivo, Balb/C mice
# Description: as §1
# In a first study, a group of three mice were initially injected with 100 ug (about 0.7 nmole) of the CHA255 antibody complexed with L-benzyl-EDTA-^111 In compound. Twenty four hours later, the animals were sacrificed, and examined for ^111 In levels in the blood, tumor, and several organs which are listed in Table 3A. The radioactivity levels were calculated in terms of percent of total radioactivity per gram tissue. The average of values obtained for three mice, and standard deviations, are given to the middle column in Table 2A. Tumor/organ (T/O) ratios are shown at the right the table.
# [5] = test system: KHJJ adenocarcinoma tumor; assay: Tumor targeting, second study: antibody 23 h prior to hapten, 1 h post hapten biodistribution; type: in vivo, Balb/C mice
# Description: as §1
# In a second study, the antibody alone was administered to each of three animals, and allowed to localize for 23 hours, at which time the L-benzyl-EDTA-^111 In compound was administered. One hour later the animals were sacrificed and again examined for radioactivity levels.
# [6] = test system: KHJJ adenocarcinoma tumor; assay: Tumor imaging and biodistribution after WC3A11, clearing agent and radiolabelled chelate (Example 6); type: in vivo, Balb/c mice
# Description: Three hours later, a whole-body scan, using computer digitation of the whole-body image, was performed on the animals.
# [7] = Whole body retention of radionuclide 24 hours after antibody/chelate complex (Table 1); type: in vivo; conditions: WC3A11 antibody; vs less tightly bound In-TBEDTA
# avidin, sequence (P02701 25-152): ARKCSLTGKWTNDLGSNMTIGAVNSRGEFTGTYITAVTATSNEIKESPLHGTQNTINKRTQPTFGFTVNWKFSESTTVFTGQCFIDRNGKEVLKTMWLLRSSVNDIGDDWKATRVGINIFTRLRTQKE
smiles,measurement,setting,value
O=C(O)CN(CC(=O)O)CC(Cc1ccc(NC(=O)CNC(=O)CCCC[C@@H]2SC[C@@H]3NC(=O)N[C@@H]32)cc1)N(CC(=O)O)CC(=O)O (stereo partly shown) [biotinylated glycineamidobenzyl EDTA],binding to avidin (in words),[1],bind with high affinity to avidin
O=C([O-])CN(CC(=O)[O-])CC(Cc1ccc(NC(=O)CSCCCCS)cc1)N(CC(=O)[O-])CC(=O)[O-].[111In+3] (stereo not shown) [TBEDTA-^111 In],"retained after 24 hours, about 180 μg antibody",[2]; initial dose about 180 μg antibody,more than 30%
same,"retained after 24 hours, about 800 μg antibody",[2]; initial dose about 800 μg antibody,greater than 70%
O=C([O-])CN(CC(=O)[O-])CC(Cc1ccccc1)N(CC(=O)[O-])CC(=O)[O-].[111In+3] [L-benzyl-EDTA-^111 In],"Conc 3 Hrs Post Hapten, Blood","[3]; Ab 25 Hr, blocking agent 1 Hr prior to hapten, 3 h, blood",0.95 ± 0.44 %/gm
same,"Conc 3 Hrs Post Hapten, Bone","[3]; Ab 25 Hr, blocking agent 1 Hr prior to hapten, 3 h, bone",1.50 ± 0.37 %/gm
same,"Conc 3 Hrs Post Hapten, Gut","[3]; Ab 25 Hr, blocking agent 1 Hr prior to hapten, 3 h, gut",2.66 ± 0.61 %/gm
same,"Conc 3 Hrs Post Hapten, Heart","[3]; Ab 25 Hr, blocking agent 1 Hr prior to hapten, 3 h, heart",0.92 ± 0.29 %/gm
same,"Conc 3 Hrs Post Hapten, Kidneys","[3]; Ab 25 Hr, blocking agent 1 Hr prior to hapten, 3 h, kidneys",1.10 ± 0.16 %/gm
same,"Conc 3 Hrs Post Hapten, Liver","[3]; Ab 25 Hr, blocking agent 1 Hr prior to hapten, 3 h, liver",0.87 ± 0.39 %/gm
same,"Conc 3 Hrs Post Hapten, Lungs","[3]; Ab 25 Hr, blocking agent 1 Hr prior to hapten, 3 h, lungs",2.55 ± 0.24 %/gm
same,"Conc 3 Hrs Post Hapten, Muscle","[3]; Ab 25 Hr, blocking agent 1 Hr prior to hapten, 3 h, muscle",3.48 ± 0.77 %/gm
same,"Conc 3 Hrs Post Hapten, Skin","[3]; Ab 25 Hr, blocking agent 1 Hr prior to hapten, 3 h, skin",4.86 ± 0.45 %/gm
same,"Conc 3 Hrs Post Hapten, Spleen","[3]; Ab 25 Hr, blocking agent 1 Hr prior to hapten, 3 h, spleen",0.21 ± 0.04 %/gm
same,"Conc 3 Hrs Post Hapten, Tumor","[3]; Ab 25 Hr, blocking agent 1 Hr prior to hapten, 3 h, tumor",7.72 ± 1.35 %/gm
same,In levels in blood and internal organs relative to tumor (in words),[3]; after clearing agent,In levels in the blood and internal organs was greatly reduced relative to the levels concentrated in the tumor
same,"T/O Ratio, Blood","[3]; blocking agent 1 Hr prior to hapten, 3 h, tumor/blood",9.20
same,"T/O Ratio, Bone","[3]; blocking agent 1 Hr prior to hapten, 3 h, tumor/bone",5.40
same,"T/O Ratio, Gut","[3]; blocking agent 1 Hr prior to hapten, 3 h, tumor/gut",2.97
same,"T/O Ratio, Heart","[3]; blocking agent 1 Hr prior to hapten, 3 h, tumor/heart",8.71
same,"T/O Ratio, Kidneys","[3]; blocking agent 1 Hr prior to hapten, 3 h, tumor/kidneys",7.04
same,"T/O Ratio, Liver","[3]; blocking agent 1 Hr prior to hapten, 3 h, tumor/liver",10.21
same,"T/O Ratio, Lungs","[3]; blocking agent 1 Hr prior to hapten, 3 h, tumor/lungs",3.02
same,"T/O Ratio, Muscle","[3]; blocking agent 1 Hr prior to hapten, 3 h, tumor/muscle",2.33
same,"T/O Ratio, Skin","[3]; blocking agent 1 Hr prior to hapten, 3 h, tumor/skin",1.61
same,"T/O Ratio, Spleen","[3]; blocking agent 1 Hr prior to hapten, 3 h, tumor/spleen",38.03
same,radioactivity remaining in blood and localized in tumor (in words),"[4]; 24 hours, Table 2A","a large percentage of radioactivity remained in the blood, although high amounts were also tumor-localized"
same,"24 Hr Conc, Blood","[4]; Hapten-Ab complex (CHA255), 24 h, blood",13.41 ± 1.48 %/gm
same,"24 Hr Conc, Bone","[4]; Hapten-Ab complex (CHA255), 24 h, bone",1.42 ± 0.22 %/gm
same,"24 Hr Conc, Gut","[4]; Hapten-Ab complex (CHA255), 24 h, gut",2.07 ± 1.42 %/gm
same,"24 Hr Conc, Heart","[4]; Hapten-Ab complex (CHA255), 24 h, heart",3.23 ± 0.48 %/gm
same,"24 Hr Conc, Kidneys","[4]; Hapten-Ab complex (CHA255), 24 h, kidneys",3.73 ± 0.81 %/gm
same,"24 Hr Conc, Liver","[4]; Hapten-Ab complex (CHA255), 24 h, liver",5.76 ± 0.86 %/gm
same,"24 Hr Conc, Lungs","[4]; Hapten-Ab complex (CHA255), 24 h, lungs",6.50 ± 0.91 %/gm
same,"24 Hr Conc, Muscle","[4]; Hapten-Ab complex (CHA255), 24 h, muscle",1.18 ± 0.16 %/gm
same,"24 Hr Conc, Skin","[4]; Hapten-Ab complex (CHA255), 24 h, skin",2.35 ± 1.19 %/gm
same,"24 Hr Conc, Spleen","[4]; Hapten-Ab complex (CHA255), 24 h, spleen",2.50 ± 0.37 %/gm
same,"24 Hr Conc, Tumor","[4]; Hapten-Ab complex (CHA255), 24 h, tumor",11.26 ± 1.40 %/gm
same,"T/O Ratio, Blood","[4]; Hapten-Ab complex, 24 h, tumor/blood",0.8
same,"T/O Ratio, Bone","[4]; Hapten-Ab complex, 24 h, tumor/bone",8.0
same,"T/O Ratio, Gut","[4]; Hapten-Ab complex, 24 h, tumor/gut",7.4
same,"T/O Ratio, Heart","[4]; Hapten-Ab complex, 24 h, tumor/heart",3.5
same,"T/O Ratio, Kidneys","[4]; Hapten-Ab complex, 24 h, tumor/kidneys",3.1
same,"T/O Ratio, Liver","[4]; Hapten-Ab complex, 24 h, tumor/liver",2.0
same,"T/O Ratio, Lungs","[4]; Hapten-Ab complex, 24 h, tumor/lungs",1.7
same,"T/O Ratio, Muscle","[4]; Hapten-Ab complex, 24 h, tumor/muscle",9.6
same,"T/O Ratio, Skin","[4]; Hapten-Ab complex, 24 h, tumor/skin",5.7
same,"T/O Ratio, Spleen","[4]; Hapten-Ab complex, 24 h, tumor/spleen",4.5
same,"Conc 1 Hr Post Hapten, Blood","[5]; Ab 23 Hr prior to hapten, 1 h, blood",24.01 ± 0.80 %/gm
same,"Conc 1 Hr Post Hapten, Bone","[5]; Ab 23 Hr prior to hapten, 1 h, bone",1.57 ± 0.09 %/gm
same,"Conc 1 Hr Post Hapten, Gut","[5]; Ab 23 Hr prior to hapten, 1 h, gut",1.51 ± 0.19 %/gm
same,"Conc 1 Hr Post Hapten, Heart","[5]; Ab 23 Hr prior to hapten, 1 h, heart",5.40 ± 0.49 %/gm
same,"Conc 1 Hr Post Hapten, Kidneys","[5]; Ab 23 Hr prior to hapten, 1 h, kidneys",5.87 ± 0.81 %/gm
same,"Conc 1 Hr Post Hapten, Liver","[5]; Ab 23 Hr prior to hapten, 1 h, liver",6.35 ± 0.50 %/gm
same,"Conc 1 Hr Post Hapten, Lungs","[5]; Ab 23 Hr prior to hapten, 1 h, lungs",9.72 ± 0.24 %/gm
same,"Conc 1 Hr Post Hapten, Muscle","[5]; Ab 23 Hr prior to hapten, 1 h, muscle",1.44 ± 0.16 %/gm
same,"Conc 1 Hr Post Hapten, Skin","[5]; Ab 23 Hr prior to hapten, 1 h, skin",1.60 ± 0.20 %/gm
same,"Conc 1 Hr Post Hapten, Spleen","[5]; Ab 23 Hr prior to hapten, 1 h, spleen",3.03 ± 0.27 %/gm
same,"Conc 1 Hr Post Hapten, Tumor","[5]; Ab 23 Hr prior to hapten, 1 h, tumor",4.08 ± 0.51 %/gm
same,"T/O Ratio, Blood","[5]; Ab 23 Hr prior to hapten, 1 h, tumor/blood",0.17
same,"T/O Ratio, Bone","[5]; Ab 23 Hr prior to hapten, 1 h, tumor/bone",2.59
same,"T/O Ratio, Gut","[5]; Ab 23 Hr prior to hapten, 1 h, tumor/gut",2.73
same,"T/O Ratio, Heart","[5]; Ab 23 Hr prior to hapten, 1 h, tumor/heart",0.76
same,"T/O Ratio, Kidneys","[5]; Ab 23 Hr prior to hapten, 1 h, tumor/kidneys",0.70
same,"T/O Ratio, Liver","[5]; Ab 23 Hr prior to hapten, 1 h, tumor/liver",0.64
same,"T/O Ratio, Lungs","[5]; Ab 23 Hr prior to hapten, 1 h, tumor/lungs",0.42
same,"T/O Ratio, Muscle","[5]; Ab 23 Hr prior to hapten, 1 h, tumor/muscle",2.84
same,"T/O Ratio, Skin","[5]; Ab 23 Hr prior to hapten, 1 h, tumor/skin",2.57
same,"T/O Ratio, Spleen","[5]; Ab 23 Hr prior to hapten, 1 h, tumor/spleen",1.36
same,tumor uptake and tumor/organ uptake ratios (in words),[5]; compared with coadministration of antibody and In compound,lower levels of tumor uptake and lower tumor/organ uptake ratios
O=C([O-])CN(CC(=O)[O-])CC(Cc1ccc(NC(=O)CSCCCCS)cc1)N(CC(=O)[O-])CC(=O)[O-].[Co+3] (stereo not shown) [Co-TBEDTA],"whole-body scan, label localization at 3 hours (in words)","[6]; FIG. 3A, 3 hours","localization of the label in the kidneys (K), bladder (B) and flank tumor (T)"
same,whole-body scan at 24 hours (in words),"[6]; FIG. 3B, 24 hours",absence of label in the bladder. Good tumor imaging with low background is still achieved
same,tumor uptake and tumor-to-organ ratios (in words),"[6]; Table 3, 3 hours","high tumor-to-organ ratios for blood, and other internal organs"
same,whole body retention (in words),[7],substantially greater retention
